Experimental data taken from ChEMBL document CHEMBL3769303, “Discovery of membrane active benzimidazole quinolones-based topoisomerase inhibitors as potential DNA-binding antimicrobial agents” (Eur J Med Chem, 2016).
Converted amounts (≈) assume the structure as drawn. The source made the active and inactive calls. The calls are words filed in the database; no cut-off is given here.

Columns and labels:
Shigella dysenteriae = assay: Antibacterial activity against Shigella dysenteriae by micro broth dilution method; assay type: functional
Staphylococcus aureus [1] = assay: Antibacterial activity against methicillin-resistant Staphylococcus aureus N315 by micro broth dilution method; assay type: functional
Staphylococcus aureus [2] = assay: Antibacterial activity against Staphylococcus aureus ATCC 25923 by micro broth dilution method; assay type: functional
Micrococcus luteus [3] = assay: Antibacterial activity against Micrococcus luteus ATCC 4698 by micro broth dilution method; assay type: functional; settings: NCTC 2665
Bacillus spizizenii = assay: Antibacterial activity against Bacillus subtilis ATCC 6633 by micro broth dilution method; assay type: functional
Escherichia coli [4] = assay: Antibacterial activity against Escherichia coli DH52 by micro broth dilution method; assay type: functional
Escherichia coli [5] = assay: Antibacterial activity against Escherichia coli JM109 by micro broth dilution method; assay type: functional
Pseudomonas aeruginosa = assay: Antibacterial activity against Pseudomonas aeruginosa ATCC 27853 by micro broth dilution method; assay type: functional
[6] = Antibacterial activity against Bacillus proteus ATCC 13315 by micro broth dilution method; assay type: functional
Salmonella enterica [7] = assay: Antibacterial activity against Salmonella enterica ATCC 14028 by micro broth dilution method; assay type: functional
Micrococcus luteus [8] = assay: Potency index, ratio of chloromycin MIC to compound MIC for Micrococcus luteus ATCC 4698; assay type: functional, NCTC 2665
Bacillus [9] = assay: Potency index, ratio of chloromycin MIC to compound MIC for Bacillus proteus ATCC 13315; assay type: functional
Salmonella enterica [10] = assay: Potency index, ratio of chloromycin MIC to compound MIC for Salmonella enterica ATCC 14028; assay type: functional
Micrococcus luteus [11] = assay: Potency index, ratio of ciprofloxacin MIC to compound MIC for Micrococcus luteus ATCC 4698; assay type: functional, NCTC 2665
Micrococcus luteus [12] = assay: Potency index, ratio of clinafloxacin MIC to compound MIC for Micrococcus luteus ATCC 4698; assay type: functional, NCTC 2665
Bacillus [13] = assay: Potency index, ratio of clinafloxacin MIC to compound MIC for Bacillus proteus ATCC 13315; assay type: functional
Salmonella enterica [14] = assay: Potency index, ratio of clinafloxacin MIC to compound MIC for Salmonella enterica ATCC 14028; assay type: functional
[15] = Antifungal activity against Candida mycoderma ATCC 9888 after 24 hrs by micro broth dilution method; assay type: functional; settings: Candida vini
Staphylococcus aureus [16] = assay: Bactericidal activity against methicillin-resistant Staphylococcus aureus N315 assessed as reduction in log10 CFU count at 6 times MIC after 24 hrs by time kill assay; assay type: functional
Staphylococcus aureus [17] = assay: Antibiofilm activity against methicillin-resistant Staphylococcus aureus N315 after 24 hrs by crystal violet staining-based plate reader assay; assay type: functional, organism-based; settings: N315, 24 h
Escherichia coli [18] = assay: Antibiofilm activity against Escherichia coli DH52 after 24 hrs by crystal violet staining-based plate reader assay; assay type: functional, organism-based; settings: DH52, 24 h
Staphylococcus aureus [19] = assay: Antibiofilm activity against methicillin-resistant Staphylococcus aureus N315 assessed as log10 CFU count at 0.125 ug/ml after 24 hrs (reference value: 13.6 log10 CFU/ml); assay type: functional
Staphylococcus aureus [20] = assay: Antibiofilm activity against methicillin-resistant Staphylococcus aureus N315 assessed as log10 CFU count at 0.25 ug/ml after 24 hrs (reference value: 13.6 log10 CFU/ml); assay type: functional
Staphylococcus aureus [21] = assay: Antibiofilm activity against methicillin-resistant Staphylococcus aureus N315 assessed as log10 CFU count at 1 ug/ml after 24 hrs (reference value: 13.6 log10 CFU/ml); assay type: functional
Staphylococcus aureus [22] = assay: Antibiofilm activity against methicillin-resistant Staphylococcus aureus N315 assessed as log10 CFU count at 2 ug/ml after 24 hrs (reference value: 13.6 log10 CFU/ml); assay type: functional
Staphylococcus aureus [23] = assay: Antibiofilm activity against methicillin-resistant Staphylococcus aureus N315 assessed as reduction in log10 CFU count after 24 hrs; assay type: functional, organism-based; settings: N315, 24 h
Escherichia coli [24] = assay: Antibiofilm activity against Escherichia coli DH52 assessed as log10 CFU count at 0.5 ug/ml after 24 hrs (reference value: 16.2 log10CFU/ml); assay type: functional
Escherichia coli [25] = assay: Antibiofilm activity against Escherichia coli DH52 assessed as log10 CFU count at 0.25 ug/ml after 24 hrs (reference value: 16.2 log10CFU/ml); assay type: functional
Escherichia coli [26] = assay: Antibiofilm activity against Escherichia coli DH52 assessed as log10 CFU count at 2 ug/ml after 24 hrs (reference value: 16.2 log10CFU/ml); assay type: functional
Escherichia coli [27] = assay: Antibiofilm activity against Escherichia coli DH52 assessed as log10 CFU count at 4 ug/ml after 24 hrs (reference value: 16.2 log10CFU/ml); assay type: functional
Escherichia coli [28] = assay: Antibiofilm activity against Escherichia coli DH52 assessed as reduction in log10 CFU count after 48 hrs; assay type: functional, organism-based; settings: DH52, 48 h
Staphylococcus aureus [29] = assay: Antibacterial activity against methicillin-resistant Staphylococcus aureus N315 assessed as membrane permeabilization at 12 times MIC measured for 15 mins by propidium iodide staining-based method; assay type: functional, organism-based
Escherichia coli [30] = assay: Antibacterial activity against Escherichia coli DH52 assessed as membrane permeabilization at 12 times MIC measured for 15 mins by propidium iodide staining-based method; assay type: functional, organism-based
Staphylococcus aureus [31] = assay: Antibacterial activity against methicillin-resistant Staphylococcus aureus N315 measured after 12 passages; assay type: functional
Escherichia coli [32] = assay: Inhibition of Escherichia coli topoisomerase 4 assessed as DNA relaxation using PUC19T-DNA at 10 uM after 2 hrs by ehtidium bromide staining-based agarose gel electrophoresis
HEK293 = assay: Cytotoxicity against HEK293 cells after 24 hrs by CCK8 assay; assay type: cell-based; settings: Homo sapiens, HEK293, 24 h
Calf thymus DNA = assay: Binding affinity to calf thymus DNA by UV-visible spectroscopy; assay type: nucleic-acid assay; settings: Bos taurus
Cyberlindnera jadinii = assay: Antifungal activity against Candida utilis ATCC 9950 after 24 hrs by micro broth dilution method; assay type: functional; settings: Williopsis jadinii, ATCC 9950, 24 h
Aspergillus flavus = assay: Antifungal activity against Aspergillus flavus ATCC 204304 after 24 hrs by micro broth dilution method; assay type: functional; settings: ATCC 204304, 24 h
Saccharomyces cerevisiae = assay: Antifungal activity against Saccharomyces cerevisiae ATCC 9763 after 24 hrs by micro broth dilution method; assay type: functional; settings: ATCC 9763, 24 h
Candida albicans = assay: Antifungal activity against Candida albicans ATCC 10231 after 24 hrs by micro broth dilution method; assay type: functional; settings: ATCC 10231, 24 h
Micrococcus luteus [33] = assay: Potency index, ratio of norfloxacin MIC to compound MIC for Micrococcus luteus ATCC 4698; assay type: functional, NCTC 2665
Salmonella enterica [34] = assay: Potency index, ratio of norfloxacin MIC to compound MIC for Salmonella enterica ATCC 14028; assay type: functional

With `O=C(O)c1cn(C2CC2)c2cc(N3CCN(Cc4nc5ccccc5n4Cc4ccc(Cl)cc4Cl)CC3)c(F)cc2c1=O` the MIC (Shigella dysenteriae) was 1 µg/mL (≈ 1.61 µM), the MIC (Staphylococcus aureus [1]) was 0.125 µg/mL (≈ 0.201 µM) and the MIC (Staphylococcus aureus [2]) was 8 µg/mL (≈ 12.9 µM). The MIC (Micrococcus luteus [3]) was 0.0625 µg/mL (≈ 0.101 µM), the MIC (Bacillus spizizenii) was 4 µg/mL (≈ 6.45 µM) and the MIC (Escherichia coli [4]) was 0.125 µg/mL (≈ 0.201 µM). For the same molecule, the MIC (Escherichia coli [5]) was 1 µg/mL (≈ 1.61 µM), the MIC (Pseudomonas aeruginosa) was 0.5 µg/mL (≈ 0.806 µM) and the MIC [6] was 0.0312 µg/mL (≈ 0.0503 µM). For the same molecule, the MIC (Salmonella enterica [7]) was 0.0312 µg/mL (≈ 0.0503 µM), the Ratio (Micrococcus luteus [8]) was 128 and the Ratio (Bacillus [9]) was 1025. The Ratio (Salmonella enterica [10]) was 1025, the Ratio (Micrococcus luteus [11]) was 32 and the Ratio (Micrococcus luteus [12]) was 8. It also gave a Ratio (Bacillus [13]) of 16, a Ratio (Salmonella enterica [14]) of 8 and an MIC80 [15] of 0.25 µg/mL (≈ 0.403 µM). It also gave an Activity (Staphylococcus aureus [16]) of 3 log10CFU/ml, an IC50 (Staphylococcus aureus [17]) of 0.125 µg/mL (≈ 0.201 µM) and an IC50 (Escherichia coli [18]) of 0.25 µg/mL (≈ 0.403 µM). For the same molecule, the Activity (Staphylococcus aureus [19]) was 10.5 log10CFU/ml, the Activity (Staphylococcus aureus [20]) was 9.6 log10CFU/ml and the Activity (Staphylococcus aureus [21]) was 5 log10CFU/ml. The Activity (Staphylococcus aureus [22]) was 0.1 log10CFU/ml, the EC50 (Staphylococcus aureus [23]) was 0.76 µg/mL (≈ 1.22 µM) and the Activity (Escherichia coli [24]) was 10.1 log10CFU/ml. For the same molecule, the Activity (Escherichia coli [25]) was 12.2 log10CFU/ml, the Activity (Escherichia coli [26]) was 7.2 log10CFU/ml and the Activity (Escherichia coli [27]) was 3.6 log10CFU/ml. For the same molecule, the EC50 (Escherichia coli [28]) was 1.5 µg/mL (≈ 2.42 µM), the Activity (Staphylococcus aureus [29]) was “Active” and the Activity (Escherichia coli [30]) was “Active”. The MIC (Staphylococcus aureus [31]) was 0.125 µg/mL (≈ 0.201 µM), the inhibition (Escherichia coli [32]) was “Active” and the IC50 (HEK293) was 106 µg/mL (≈ 171 µM). It also gave a K (Calf thymus DNA) of 4.3 ×10⁴ L/mol, an MIC80 (Cyberlindnera jadinii) of 0.125 µg/mL (≈ 0.201 µM) and an MIC80 (Aspergillus flavus) of 0.5 µg/mL (≈ 0.806 µM). The MIC80 (Saccharomyces cerevisiae) was 1 µg/mL (≈ 1.61 µM), the MIC80 (Candida albicans) was 0.5 µg/mL (≈ 0.806 µM) and the Ratio (Micrococcus luteus [33]) was 32. The Ratio (Salmonella enterica [34]) was 32.
